# In patent US7064207B2, “Androgen receptor antagonists” (Warner Lambert Company LLC, priority 2003, dated 2006):
# Molecular target: T1, androgen receptor (Homo sapiens, UniProt P10275)
# T1 sequence (P10275 1-920 Q868H): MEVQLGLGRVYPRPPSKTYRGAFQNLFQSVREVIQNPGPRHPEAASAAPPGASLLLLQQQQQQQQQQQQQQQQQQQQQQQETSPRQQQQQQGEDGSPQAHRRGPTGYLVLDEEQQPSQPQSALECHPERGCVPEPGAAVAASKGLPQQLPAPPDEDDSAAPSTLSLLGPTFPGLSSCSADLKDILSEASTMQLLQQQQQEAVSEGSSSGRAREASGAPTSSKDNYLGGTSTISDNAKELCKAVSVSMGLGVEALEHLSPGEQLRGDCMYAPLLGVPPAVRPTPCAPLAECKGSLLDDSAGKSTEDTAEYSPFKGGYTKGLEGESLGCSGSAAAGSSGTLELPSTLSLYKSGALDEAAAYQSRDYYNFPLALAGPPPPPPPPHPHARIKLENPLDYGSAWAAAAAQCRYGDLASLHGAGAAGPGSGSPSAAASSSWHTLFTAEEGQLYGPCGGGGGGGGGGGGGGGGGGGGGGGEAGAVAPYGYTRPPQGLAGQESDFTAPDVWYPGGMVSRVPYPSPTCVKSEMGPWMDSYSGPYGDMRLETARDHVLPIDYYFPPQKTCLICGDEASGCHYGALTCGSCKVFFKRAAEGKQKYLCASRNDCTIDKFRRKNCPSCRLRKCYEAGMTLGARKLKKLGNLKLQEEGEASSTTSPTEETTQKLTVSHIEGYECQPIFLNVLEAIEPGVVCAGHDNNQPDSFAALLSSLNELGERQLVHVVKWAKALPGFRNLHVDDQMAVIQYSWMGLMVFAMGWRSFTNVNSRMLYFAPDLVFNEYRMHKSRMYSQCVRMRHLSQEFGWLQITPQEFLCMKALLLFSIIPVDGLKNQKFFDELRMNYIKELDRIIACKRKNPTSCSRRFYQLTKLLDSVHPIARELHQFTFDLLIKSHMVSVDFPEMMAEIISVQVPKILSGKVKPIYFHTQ
# Experiment: AR Antagonist Cell Assay (MMTV-luciferase reporter, inhibition of DHT induction)
# Assay type: cell-based
# Details: MDA-MB453-MMTV clone 54-19 cells, 100 pM DHT, 17 hr, luciferase; read-out: Cell IC50
# Method: The compounds ability to antagonize the effects of androgen on the androgen receptor were determined in the protocol described immediately below.
# Experimental Procedure for AR Antagonist Cell Assay
# Cell line: MDA-MB453-MMTV clone 54–19. This cell line is a stable transfected cell line with MDA-MB453 cell background (human breast tumor cell expressing high level of androgen receptor). A MMTV minimal promoter containing ARE was first cloned in front of a firefly luciferase reporter gene. Then the cascade was cloned into transfection vector pUV120puro. Electroporation method was used for transfecting MDA-MB-453 cell. Puromycin resistant stable cell line was selected. Cell Culture Media and Reagents:
# Culture medium: DMEM (high glucose, Gibco cat #: 11960-044), 10% FBS, and 1% L-glutamine
# Plating medium: DMEM (phenol red free), 10% charcoal treated HyClone serum, 1% L-glutamine
# Assay medium: DMEM (phenol red free), 1% charcoal treated HyClone serum, 1% L-glutamine, and 1% penicillin/streptomycin
# 3× luciferase buffer: 2% beta-mercaptoethanol, 0.6% ATP, 0.0135% luciferine in cell lysis buffer
# • 1. Cells are maintained in culture medium, splitting cells when they reach 80–90% confluence • 2. To test compounds, 10,000 cells/well are plated to opaque 96 cell culture plate in 100 ul/well plating medium, culture for overnight at 37° C. in cell culture incubator • 3. Carefully remove plating medium, then add 80 ul/well of pre-warmed assay medium, add 10 ul/well testing compound (final concentration at 10 uM or 1 uM), incubate at 37° C. for 30 minutes • 4. Add 10 ul/well freshly prepared DHT (final concentration at 100 pM) to each well, incubate at 37° C. for 17 hr (overnight) • 5. Add 50 ul/well 3× luciferase buffer, incubate at room temperature for 5 minutes, then count on Luminometer The fold induction over background by 100 pM DHT in the absence of testing compounds is standardized as 100% and experimental result is expressed as percentage of inhibition by testing compounds.
row,SMILES,IC50 [µM]
1,"O=c1cc(C(F)(F)F)c2cc(S(=O)(=O)N3CCCC3CN3CCCC3)ccc2[nH]1 (centres unmarked) [Example 41, 6-(2-Pyrrolidin-1-ylmethyl-pyrrolidine-1-sulfonyl)-4-trifluoromethyl-1H-quinolin-2-one]",3.6
2,"O=c1cc(C(F)(F)F)c2cc(S(=O)(=O)N3CCN(CCc4cccs4)CC3)ccc2[nH]1 [Example 32, 6-[4-(2-Thiophen-2-ylethyl)piperazine-1-sulfonyl]-4-trifluoromethyl-1H-quinolin-2-one]",2.66
3,"O=c1cc(C(F)(F)F)c2cc(S(=O)(=O)N3CCC4(CC3)OCCO4)ccc2[nH]1 [Example 22, 6-(1,4-Dioxa-8-azaspiro[4.5]decane-8-sulfonyl)-4-trifluoromethyl-1H-quinolin-2-one]",1.9
4,"CC1CN(S(=O)(=O)c2ccc3c(c2)c(C(F)(F)F)cc(=O)n3C)CC(C)O1 (centres unmarked) [Example 10, 6-(2,6Dimethylmorpholine-4-sulfonly)-1-methyl-4-trifluoromethyl-1H-quinolin-2-one]",> 10
5,"Cn1c(=O)cc(C(F)(F)F)c2cc(S(=O)(=O)N3CCCC4CCCCC43)ccc21 (centres unmarked) [Example 8, 1-Methyl-6-(octahydro-quinoline-1-sulfonyl)-4-trifluoromethyl-1H-quinolin-2-one]",> 10
6,"CC1CCN(S(=O)(=O)c2ccc3[nH]c(=O)cc(C(F)(F)F)c3c2)CC1 [Example 24, 6-(4-Methylpiperidine-1-sulfonyl)-4-trifluoromethyl-1H-quinolin-2-one]",0.96
7,"O=c1cc(C(F)(F)F)c2cc(S(=O)(=O)N3CCN(c4ccccn4)CC3)ccc2[nH]1 [Example 40, 6-(4-Pyridin-2-ylpiperazine-1-sulfonyl)-4-trifluoromethyl-1H-quinolin-2-one]",> 10
8,"COC(=O)[C@@H]1CCCN1S(=O)(=O)c1ccc2[nH]c(=O)cc(C(F)(F)F)c2c1 [Example 19, 1-(2-Oxo-4-trifluoromethyl-1,2-dihydroquinoline-6-sulfonyl)pyrrolidine-2-carboxylic acid methylester]",2.24
